Structures are written as SMILES. ≈ marks a conversion by molar mass, not a printed value.

What is called MIC is the least concentration at which growth counts as inhibited. Low readings indicate greater potency, high ones weaker potency.

The test concerns Staphylococcus aureus. The experiment in a line: Antibacterial activity against Staphylococcus aureus Rosenbach after 14 hrs. Format: functional.
`CN(C)c1cc(NC(=O)CNN)c(O)c2c1C[C@H]1C[C@H]3[C@H](N(C)C)C(O)=C(C(N)=O)C(=O)[C@@]3(O)C(O)=C1C2=O` yielded a minimal inhibitory concentration (MIC) of 2 µg/mL (≈ 3.67 µM).

`CN(C)c1ccc(O)c2c1C[C@H]1C[C@H]3[C@H](N(C)C)C(O)=C(C(N)=O)C(=O)[C@@]3(O)C(O)=C1C2=O` [MINOCYCLINE] gave a minimal inhibitory concentration (MIC) of 0.125 µg/mL (≈ 0.273 µM).

Turning to `CN(C)c1cc(NC(=O)CN)c(O)c2c1C[C@H]1C[C@H]3[C@H](N(C)C)C(O)=C(C(N)=O)C(=O)[C@@]3(O)C(O)=C1C2=O`, it took 2 µg/mL (≈ 3.78 µM) to inhibit growth (MIC).

`CN(C)c1cc(N)c(O)c2c1C[C@H]1C[C@H]3[C@H](N(C)C)C(O)=C(C(N)=O)C(=O)[C@@]3(O)C(O)=C1C2=O` displayed an MIC of 2 µg/mL (≈ 4.23 µM).

The values above are taken from ChEMBL document CHEMBL1137628, “Bactericidal activity of extended 9-glycyl-amido-minocyclines” (2007).
